# Laboratory results from patent US8546421B1, “Oncogenic-RAS-signal dependent lethal compounds” (The Trustees of Columbia University in the City of New York, priority 2007, dated 2013).
# Legend:
# NCI-H23 = assay: NCI60 anti-cancer screening; details: for GI50 / CC50: Homo sapiens; for GI50 / GI 100%: NCI-H23; for CC50: NCI-H23, read-out: LC 50%; for GI 100%: Non-small cell lung carcinoma
# SW-620 = assay: NCI60 anti-cancer screening; details: for GI50 / CC50: Homo sapiens; for GI50 / GI 100%: SW-620; for CC50: SW-620, read-out: LC 50%; for GI 100%: Colon Cancer
# KM12 = assay: NCI60 anti-cancer screening; details: for GI50 / CC50: Homo sapiens; for GI50 / GI 100%: KM12; for CC50: KM12, read-out: LC 50%; for GI 100%: Colon Cancer
# T-47D = assay: NCI60 anti-cancer screening; details: for GI50 / CC50: Homo sapiens, T47D; for CC50: read-out: LC 50%; for GI 100%: T-47D, Breast Cancer
# 786-0 = assay: NCI60 anti-cancer screening; details: for GI 100% / GI50: 786-0; for GI 100%: Renal Cancer; for GI50 / CC50: Homo sapiens; for CC50: 786-0, read-out: LC 50%
# OVCAR-3 = details: Ovarian Cancer
# A498 = assay: NCI60 anti-cancer screening; details: for GI 100% / GI50: A498; for GI 100%: Renal Cancer; for GI50 / CC50: Homo sapiens; for CC50: A498, read-out: LC 50%
# VDAC3 in HT1080 cells = assay: Drug sensitivity after shRNA knockdown of VDAC3; type: cell-based, human; details: shRNAs targeting VDAC3, alamar blue
# Procedure: On day one, 3×10^5 Calu-1 cells or 2×10^5 HT1080 cells were seeded in 10-cm dishes; on day 2, frozen virus stock was thawed at 37° C., hexadimethrine bromide (polybrene) (Sigma, cat.#H9268) was added to the virus solution at a final concentration of 8 μg/mL and growth media from cell culture was replaced with the virus/polybrene mixture. The culture was returned to the tissue culture incubator for 2 hours, with rocking of the dishes every 30 min in order to prevent drying. After 2 h, 10 mL growth medium was added, the culture was incubated for 2 days, and cells stably expressing shRNA were selected by adding puromycin (Sigma, cat.#P9620) at a final concentration of 1.5 μg/mL.
# On the day of experiment, assay plates were prepared by seeding 3,000 HT1080, HT1080-pLKO, HT1080-TfR1 KD, Calu-1, Calu-1-pLKO, or Calu-1-509 cells per well in 36 μL of growth media to black, clear bottom 384-well plates. Also, assay plates were prepared by seeding 1,500 shRNA infected HT1080 or Calu-1 cells per well. Cells in assay plates were treated with each lethal compound in a 2-fold dilution series by transferring 4 μL solution from a 10× lethal plate of Erastin, Compound 3, Compound 27, or Compound 36. […] Percent growth inhibition (% GI) was calculated using fluorescence intensity values.
# IGROV1 = assay: NCI60 anti-cancer screening; details: for GI50 / CC50: Homo sapiens; for GI50: IGROV-1; for CC50: IGROV-1, read-out: LC 50%; for GI 100%: IGROV1, Ovarian Cancer
# A549/ATCC = assay: NCI60 anti-cancer screening; details: for GI 100%: A549/ATCC, Non-small cell lung carcinoma; for GI50 / CC50: Homo sapiens; for GI50: A549; for CC50: A549, read-out: LC 50%
# HCT-15 = assay: NCI60 anti-cancer screening; details: for GI 100% / GI50: HCT-15; for GI 100%: Colon Cancer; for GI50 / CC50: Homo sapiens; for CC50: HCT-15, read-out: LC 50%
# SF-295 = assay: NCI60 anti-cancer screening; details: for GI50 / CC50: Homo sapiens; for GI50 / GI 100%: SF-295; for CC50: SF-295, read-out: LC 50%; for GI 100%: CNS Cancer
# NCI-H322M = assay: NCI60 anti-cancer screening; details: for GI50 / CC50: Homo sapiens; for CC50: read-out: LC 50%; for GI 100%: Non-small cell lung carcinoma
# NCI-H226 = assay: NCI60 anti-cancer screening; details: for GI50 / CC50: Homo sapiens; for GI50 / GI 100%: NCI-H226; for CC50: NCI-H226, read-out: LC 50%; for GI 100%: Non-small cell lung carcinoma
# HCC-2998 = assay: NCI60 anti-cancer screening; details: for GI 100%: HCC-2998, Colon Cancer; for GI50 / CC50: Homo sapiens; for GI50: HCC 2998; for CC50: HCC 2998, read-out: LC 50%
# U251 = assay: NCI60 anti-cancer screening; details: for GI50 / CC50: Homo sapiens; for GI50: U-251; for CC50: U-251, read-out: LC 50%; for GI 100%: U251, CNS Cancer
# OVCAR-5 = assay: NCI60 anti-cancer screening; details: for GI50 / CC50: Homo sapiens; for GI50 / GI 100%: OVCAR-5; for CC50: OVCAR-5, read-out: LC 50%; for GI 100%: Ovarian Cancer
# EKVX = assay: NCI60 anti-cancer screening; details: for GI50 / CC50: Homo sapiens; for CC50: read-out: LC 50%; for GI 100%: Non-small cell lung carcinoma
# CAKI-1 = assay: NCI60 anti-cancer screening; details: for GI 100% / GI50: CAKI-1; for GI 100%: Renal Cancer; for GI50 / CC50: Homo sapiens; for CC50: CAKI-1, read-out: LC 50%
compound,measurement,setting,value
CCc1c(O)c2c(c(O)c1O[C@H]1O[C@@H](COC(C)=O)[C@H](OC(C)=O)[C@@H](CC(C)=O)[C@@H]1OC(C)=O)C(=O)C(O[C@@H]1O[C@H](COC(C)=O)[C@@H](OC(C)=O)[C@H](OC(C)=O)[C@H]1OC(C)=O)=C(O[C@@H]1O[C@H](COC(C)=O)[C@@H](OC(C)=O)[C@H](OC(C)=O)[C@H]1OC(C)=O)C2=O [Compound 6],GI50,NCI-H23,4.17 µM
same,CC50,NCI-H23,> 10 µM
same,GI 100%,NCI-H23,>10 µM
same,GI50,SW-620,0.271 µM
same,CC50,SW-620,3.9 µM
same,GI 100%,SW-620,1.03 µM
same,GI50,KM12,5.2 µM
same,CC50,KM12,> 10 µM
same,GI 100%,KM12,>10 µM
same,GI50,T-47D,4.53 µM
same,CC50,T-47D,9.35 µM
same,GI 100%,T-47D,2.06 µM
same,GI 100%,786-0,5.54 µM
same,GI50,786-0,2.51 µM
same,CC50,786-0,> 10 µM
same,GI 100%,OVCAR-3,>10 µM
COCCOC(=O)C1=C(C)NC2=C(C(=O)CC(c3ccc(Cl)cc3)C2)C1c1ccccc1F (centres unmarked) [Compound 3],GI 100%,786-0,>10 µM
same,GI50,786-0,9.27 µM
same,CC50,786-0,> 10 µM
same,GI 100%,A498,>10 µM
same,GI50,A498,3.39 µM
same,CC50,A498,> 10 µM
same,effect of VDAC3 knockdown on compound-induced cell death,VDAC3 in HT1080 cells,suppressed
C=C1CCC2C(C)(C)CCC[C@]2(C)C1CC/C(C)=C\CC/C(C)=N/NC(N)=S (some centres unmarked) [Compound 36],GI50,NCI-H23,0.44 µM
same,CC50,NCI-H23,4.23 µM
same,GI 100%,NCI-H23,1.65 µM
same,GI50,SW-620,0.184 µM
same,CC50,SW-620,2.54 µM
same,GI 100%,SW-620,0.569 µM
same,GI50,IGROV1,0.254 µM
same,CC50,IGROV1,4.17 µM
same,GI 100%,IGROV1,1.28 µM
same,GI 100%,A549/ATCC,2.4 µM
same,GI50,A549/ATCC,1.11 µM
same,CC50,A549/ATCC,5.15 µM
same,GI50,KM12,0.469 µM
same,CC50,KM12,4.47 µM
same,GI 100%,KM12,1.8 µM
same,GI50,T-47D,0.701 µM
same,CC50,T-47D,> 10 µM
same,GI 100%,T-47D,3.21 µM
same,GI 100%,HCT-15,1.53 µM
same,GI50,HCT-15,0.305 µM
same,CC50,HCT-15,3.93 µM
same,GI50,SF-295,1.19 µM
same,CC50,SF-295,5.33 µM
same,GI 100%,SF-295,2.52 µM
same,GI50,NCI-H322M,0.606 µM
same,CC50,NCI-H322M,4.93 µM
same,GI 100%,NCI-H322M,1.99 µM
same,GI 100%,786-0,0.907 µM
same,GI50,786-0,0.252 µM
same,CC50,786-0,3.02 µM
same,GI50,NCI-H226,0.48 µM
same,CC50,NCI-H226,4.55 µM
same,GI 100%,NCI-H226,1.66 µM
same,GI 100%,HCC-2998,0.733 µM
same,GI50,HCC-2998,0.24 µM
same,CC50,HCC-2998,2.68 µM
same,GI50,U251,0.47 µM
same,CC50,U251,4.12 µM
same,GI 100%,U251,1.7 µM
same,GI50,OVCAR-5,0.492 µM
same,CC50,OVCAR-5,4.33 µM
same,GI 100%,OVCAR-5,1.62 µM
same,GI50,EKVX,1.24 µM
same,CC50,EKVX,5.09 µM
same,GI 100%,EKVX,2.51 µM
same,GI 100%,A498,1.29 µM
same,GI50,A498,0.268 µM
same,CC50,A498,3.85 µM
same,GI 100%,OVCAR-3,0.804 µM
same,GI 100%,CAKI-1,0.413 µM
same,GI50,CAKI-1,0.165 µM
same,CC50,CAKI-1,1.08 µM
COC(=O)c1ccc(C2c3[nH]c4ccccc4c3CC(C(=O)OC)N2C(=O)CCl)cc1 (centres unmarked) [Compound 27],GI50,NCI-H23,1.15 µM
same,CC50,NCI-H23,7.59 µM
same,GI 100%,NCI-H23,2.95 µM
same,GI50,SW-620,0.681 µM
same,CC50,SW-620,5.25 µM
same,GI 100%,SW-620,2.09 µM
same,GI50,IGROV1,0.0209 µM
same,CC50,IGROV1,0.27 µM
same,GI 100%,IGROV1,0.0571 µM
same,GI 100%,A549/ATCC,>10 µM
same,GI50,A549/ATCC,2.51 µM
same,CC50,A549/ATCC,> 10 µM
same,GI50,KM12,0.188 µM
same,CC50,KM12,4.15 µM
same,GI 100%,KM12,1.19 µM
same,GI50,T-47D,1.64 µM
same,CC50,T-47D,> 10 µM
same,GI 100%,T-47D,5.16 µM
same,GI 100%,HCT-15,2.83 µM
same,GI50,HCT-15,1.45 µM
same,CC50,HCT-15,5.54 µM
same,GI50,SF-295,1.1 µM
same,CC50,SF-295,8.06 µM
same,GI 100%,SF-295,2.97 µM
same,GI50,NCI-H322M,3.6 µM
same,CC50,NCI-H322M,> 10 µM
same,GI 100%,NCI-H322M,>10 µM
same,GI 100%,786-0,0.473 µM
same,GI50,786-0,0.0603 µM
same,CC50,786-0,2.52 µM
same,GI50,NCI-H226,0.688 µM
same,CC50,NCI-H226,> 10 µM
same,GI 100%,NCI-H226,2.79 µM
same,GI 100%,HCC-2998,5.1 µM
same,GI50,HCC-2998,2.01 µM
same,CC50,HCC-2998,> 10 µM
same,GI50,U251,1.1 µM
same,CC50,U251,4.79 µM
same,GI 100%,U251,2.3 µM
same,GI50,OVCAR-5,2.24 µM
same,CC50,OVCAR-5,> 10 µM
same,GI 100%,OVCAR-5,5.71 µM
same,GI50,EKVX,2.31 µM
same,CC50,EKVX,> 10 µM
same,GI 100%,EKVX,5.63 µM
same,GI 100%,A498,4.52 µM
same,GI50,A498,1.83 µM
same,CC50,A498,> 10 µM
same,effect of VDAC3 knockdown on compound-induced cell death,VDAC3 in HT1080 cells,not affected
same,GI 100%,OVCAR-3,1.57 µM
same,GI 100%,CAKI-1,0.0381 µM
same,GI50,CAKI-1,0.0211 µM
same,CC50,CAKI-1,0.0687 µM
